Measured values published in patent US9173898B2, “Methods of treating giardiasis” (THE UNITED STATES OF AMERICA, as represented by the …, priority 2010, dated 2015).
Converted amounts (≈) assume the structure as drawn. Counter-ions that a name gives are not always drawn. Like-named read-outs stand apart in the source and are kept apart here.

Tests used:
[1] = system: Giardia lamblia GS isolate; test: Minimum Lethal Concentration (MLC) determination; format: cell-based; conditions: 3 days with compound, then 3 days regrowth without compound, tube without any live organisms
Method: Giardia lamblia GS isolate was used throughout the Minimal Lethal Concentration (MLC) experiments. Organisms were grown and maintained in TYI-S-33 medium supplemented with bile and antibiotics (Keister, 1983). Cidal activity was determined in 96-well culture plates (Corning Incorporated) followed by Giardia trophozoites regrowth in 8 ml tubes (Fisher Scientific). Dry compounds were dissolved in DMSO (Sigma) at stock concentration of 10 mM and then added to the growth media to ensure final DMSO concentration of no more than 0.5%. 100 μl of the compound solutions were placed in the wells by serial dilutions. 10 μl of Giardia trophozoites containing 10000 organisms were then added. Serial dilutions of metronidazole served as the positive control and the DMSO-containing medium served as the negative control. Plates were incubated under anaerobic conditions in sealed bags (Becton Dickinson and Company) at 37° C. for 3 days and surveyed visually under microscope to check survival, mobility and attachment of trophozoites. The plate was chilled on ice for 30 min and the entire contents of 4 wells in the growth/death transition were transferred into the 8 ml tubes containing growth media only (without the compound). After 3 days of incubation at 37° C., tubes were checked under microscope for any surviving trophozoites. MLC was attributed to the tube without any live organisms. See, e.g., Keister, D. B. 1983. Axenic culture of Giardia lamblia in TYI-S-33 medium supplemented with bile. Trans. Soc. Trop. Med. Hyg. 77:487-488.

CHO cells [2] = test: CHO cell cytotoxicity assay in 1536-well format (ATP content counter-screen); format: cell-based, Chinese hamster; conditions: for Emax: Cricetulus griseus, CHO, 48 h, percent reduction in ATP levels compared with 38.3 µM camptothecin at maximal compound concentration, read-out: CHO Efficacy; for CHO Efficacy: percent reduction in ATP levels compared with 38.3 mM camptothecin at maximal compound concentration
Giardia WB = test: Giardia viability (ATP content) assay in 1536-well format; format: cell-based, Giardia lamblia; conditions: for Emax: 48 h, read-out: Giardia WB Efficacy; for Emax / Giardia WB Efficacy: percent reduction in ATP levels compared with 38.3 mM Mnz at maximal compound concentration; for IC50: concentration at which 50% of DMSO control ATP levels are detected, 48 hours, 1536-well
Method: (§1) For the viability assay in 1536-well format, 2 μL media was dispensed per well into 1536-well white solid-bottom plates using a Multidrop Combi dispenser (Thermo Scientific). Subsequently, 23 nL/well compound solutions or DMSO controls were dispensed to the assay plates containing media via a pintool workstation (Kalypsys, San Diego). Trophozoites were chilled on ice to detach from glass tubes, and unless otherwise noted, were diluted to 250,000 trophozoites/mL with ice cold media. The trophozoite suspension was kept on ice and dispensed as 4 μL/well with the Multidrop Combi dispenser. Attachment of trophozoites to dispensing apparatus was avoided with continuous dispensing and icing of the trophozoite suspension. The plates were covered with plastic low-evaporation lids, individually sealed in Type A Bio-Bags and incubated at 37° C. for 48 hours. Following incubation, 4 μL/well of ATPLite reagent was dispensed with the Multidrop Combi dispenser. The assay plates were briefly centrifuged at 1000 RPM and luminescence signal was detected on a ViewLux plate reader (PerkinElmer) after 20 min incubation at room temperature. Signal-to-basal (S/B) ratio, Z′ factor and coefficient of variation (CV) were calculated from 32 wells with 0.38% DMSO (total signal) and 32 well with 38.3 μM Mnz (basal signal).
Assay miniaturization in 1,536-well plate format was undertaken to increase throughput and facilitate screening of large compound libraries. The volume of trophozoites suspension was reduced to 6 μL/well and the ATP detection reagent was reduced to 4 μL/well in the 1536-well assay plates. […] The 100 trophozoites/well density was selected for further experiments to reduce the preparation work of Giardia cultures. Following these conditions, a DMSO test plate was used to assess the statistical parameters of the assay in the 1,536-well plate format.
Using the above established conditions in 1536-well format, each compound of the invention was tested at 5 concentration points, ranging from 61 nM-38.3 μM in a 1:5 dilution ratio (Inglese, J., D. S. Auld, A. Jadhav, R. L. Johnson, A. Simeonov, A. Yasgar, W. Zheng, and C. P. Austin. 2006. Quantitative high-throughput screening: a titration-based approach that efficiently identifies biological activities in large chemical libraries. Proc Natl Acad Sci USA 103:11473-8).

CHO cells [3] = test: CHO cell cytotoxicity assay in 1536-well format (ATP content counter-screen); format: cell-based, Chinese hamster; conditions: concentration at which 50% of DMSO control ATP levels are detected, 48 hours
Method: For the viability assay in 1536-well format, 2 μL media was dispensed per well into 1536-well white solid-bottom plates using Multidrop Combi dispenser. Subsequently, 23 nL/well compound solutions or DMSO controls were dispensed to the assay plates via a pintool workstation. The Chinese hamster ovary (CHO) cells were grown in T225 flasks to 70% confluence under a standard cell culture condition (ATCC), detached with 0.25% Trypsin/EDTA, and seeded at 250 cells/well in 4 μL media (Dulbecco's Modified Eagle Medium, 10% fetal bovine serum, 1× penicillin/streptomycin). The plates were incubated at 37° C. with 5% CO2 and 95% humidity for 48 hours. Subsequently, ATP content was measured following the addition of 4 μL/well of ATPLite reagent and a 20 min incubation on a ViewLux plate reader.
Data from the CHO cell counter-screen underwent the same initial analysis, with the exception that raw luminescence counts were normalized relative to DMSO only wells (0% activity) and 38.3 μM camptothecin treated wells (100% activity).
CHO cells, commonly used in high throughput compound screening, were selected to determine the cytotoxicity of the compounds towards a mammalian cell line.

G. lamblia GS isolate = test: ATP content assay against G. lamblia GS isolate; format: cell-based, Giardia lamblia; conditions: Table 2, screen, read-out: Giardia GS IC50
Method: as §1
As a further confirmatory step, some compounds that were commercially available were purchased as powder samples and tested against the G. lamblia GS isolate using both the ATP content and enumeration assays (Table 3).

Compound	MBC ([1]; Giardia duodenalis, 72 h) [µM]	Emax (CHO cells [2]) [%]	Emax (Giardia WB; Giardia) [%]	IC50 (Giardia WB; Giardia) [nM]	IC50 (CHO cells [3]; Cricetulus griseus, CHO) [nM]	CHO Efficacy (CHO cells [2]) [%]	IC50 (Giardia WB) [nM]	Giardia WB Efficacy (Giardia WB) [%]	IC50 (CHO cells [3]) [nM]	IC50 (G. lamblia GS isolate; Giardia duodenalis) [nM]	MBC [1] [µM]	IC50 (G. lamblia GS isolate) [nM]
C=CCNC1=C2C[C@@H](C)C[C@H](OC)[C@H](O)[C@@H](C)/C=C(\C)[C@H](OC(N)=O)[C@@H](OC)/C=C\C=C(/C)C(=O)NC(=CC1=O)C2=O [17-Allylamino geldanamycin]	13.9 (≈ 8.14 µg/mL)	86.9	95.6	81.9	520							
N[C@H](C(=O)O)[C@@H]1CC(Cl)=NO1 [Acivicin]		52.5	85.9	170	27400							
CC(C)C[C@H](NC(=O)[C@H](Cc1ccccc1)NC(=O)c1cnccn1)B(O)O [Bortezomib (S,S), Bortezomib]		48.2	94.4	110	20							
NC(=O)c1cc(N2CC2)c([N+](=O)[O-])cc1[N+](=O)[O-] [CB 1954]						−16.9	120	96.4	> 100000			
COC(COC(N)=O)C1=C(N2CC2)C(=O)C(C)=C(N2CC2)C1=O (stereo not drawn) [Carboquone]	1.54 (≈ 0.495 µg/mL)	98.4	97.4	183	580							
COC(=O)[C@H]1[C@H]2C[C@@H]3c4[nH]c5ccccc5c4CCN3C[C@H]2C[C@@H](OC(=O)c2cc(OC)c(OC)c(OC)c2)[C@@H]1OC [Deserpidine]	1.54 (≈ 0.891 µg/mL)	13	94.5	1630	280					283		
O=[N+]([O-])c1ccc(OC2OC(CO)C(O)C(O)C2F)c([N+](=O)[O-])c1 (stereo not drawn) [Dinitroph-dfgp]		-8	44.2	43400	> 100000							
c1ccc2c(c1)[I+]c1ccccc1-2 [Diphenylene- iodonium chloride, diphenyleneiodonium chloride]		95.9	96	259	2060							
CCN(CC)C(=S)SSC(=S)N(CC)CC [Disulfiram]		53.6	95	6500	200							
COc1cc2c(cc1O)CCN[C@]21CS[C@H]2c3c(OC(C)=O)c(C)c4c(c3[C@H](COC1=O)N1C2[C@H]2c3c(cc(C)c(OC)c3O)C[C@@H]([C@@H]1O)N2C)OCO4 (stereo partly drawn) [Ecteinascidin 743]		97.6	95.9	6.51	50							
CC(=O)[C@]1(O)Cc2c(O)c3c(c(O)c2[C@@H](O[C@H]2C[C@H](N)[C@H](O)[C@H](C)O2)C1)C(=O)c1ccccc1C3=O [Idarubicin HCl]	> 41.7	88.7	94.1	3260	200							
O=C1c2c(O)ccc(O)c2C(=O)c2c(NCCNCCO)ccc(NCCNCCO)c21 [Mitoxantrone]	> 41.7	95.8	87.5	8190	5800							
O=[N+]([O-])c1ccc(/C=N/O)o1 [Nifuroxime]						−50.3	460	97.1	41000		1.54 (≈ 0.24 µg/mL)	1000
CC(=O)Nc1ncc([N+](=O)[O-])s1 [Nithiamide]	4.63 (≈ 0.867 µg/mL)	25.9	94.6	580	> 100000					317		
COC(=O)Nc1nc2ccc(C(=O)c3cccs3)cc2[nH]1 [Nocodazole]	0.15 (≈ 0.0452 µg/mL)	54.4	86.7	183	370							
CCCCc1ccc2[nH]c(NC(=O)OC)nc2c1 [Parbendazole]		60.3	90.2	312	440							
Oc1cc(O)cc(/C=C/c2ccc(O)c(O)c2)c1 [Piceatannol]	13.9 (≈ 3.4 µg/mL)	-16.6	81.3	3260	> 100000					3560		
Oc1ccc(/C=C\c2cc(O)cc(O)c2)cc1 [Resveratrol]	> 208	22.2	80.7	4940	39200							
CCCC(=O)OCC(OC(=O)CCC)C(OC(=O)CCC)C(Cn1c2nc(=O)[nH]c(=O)c-2nc2cc(C)c(C)cc21)OC(=O)CCC (stereo not drawn) [Riboflavin Butyrate]	41.7 (≈ 27.4 µg/mL)	20.3	95.7	1090	> 100000					1130		
O=C(Nc1ncc([N+](=O)[O-])s1)c1cccs1 [Tenonitrozol]	1.54 (≈ 0.393 µg/mL)	21.5	93.1	290	> 100000							
CN(C)C(=S)SSC(=S)N(C)C [Tetramethylthiur am disulfide, tetramethylthiuram disulfide]		97.6	97.6	5160	520							
CCCOc1ccc2nc(NC(=O)OC)sc2c1 [Tioxidazole]	1.54 (≈ 0.41 µg/mL)	34.9	90.9	1460	> 100000					634		
CC[C@]1(O)C[C@@H]2C[N@@](CCc3c([nH]c4ccccc34)[C@@](C(=O)OC)(c3cc4c(cc3OC)N(C)[C@H]3[C@@](O)(C(=O)OC)[C@H](OC(C)=O)[C@]5(CC)C=CCN6CC[C@]43[C@@H]65)C2)C1 [Vinblastine sulfate]		64.1	90.1	1450	100							
Amlexanox						89.3	2590	92.4	3260		>41.7	
Bortezomib [Bortezomib (S,R)]						36.2	70	92.8	10			
